Several values for one entry are separate records, joined by “and”; a condition that tells them apart may be missing. Equal entries are not always repeated.
How the values were obtained:
Type in all cases: in vivo
[1] = tested on: Solanum turberosum (SOLTU); test: Pre-harvest desiccation of crop plants; conditions: Table E, evaluated after 7 and 14 days (which not stated), 100=total damage to plant, 0=no damage
Procedure: (§1) Seeds of a variety of test species were sown in standard loam based soil in pots. After cultivation from between 21 and 28 days (post-emergence) under controlled conditions in a glasshouse (at 24/16° C., day/night; 14 hours light; 65% humidity) for warm climate species and (at 20/16° C. day/night; 15 hours light; 65% humidity) for cool climate species.
(§2) The plants were sprayed with an aqueous spray solution derived from dissolving the technical active ingredient formula in a small amount of acetone and a special solvent and emulsifier mixture referred to as IF50 (11.12% Emulsogen EL360 TM+44.44% N-methylpyrrolidone+44.44% Dowanol DPM glycol ether), to create a 50 g/I solution which was then diluted to required concentration using a solution of 1% Empicol ESC70 (Sodium lauryl ether sulphate)+1% ammonium sulphate in water as diluent.
(§3) The delivery of the aqueous spray solution was via a laboratory track sprayer which delivered the aqueous spray composition at a rate of 200 litres per hectare, using a flat fan nozzle (Teejet 11002VS) and an application volume of 200 litre/ha (at 2 bar).
(§4) The test plants were then grown in a glasshouse under controlled conditions (at 24/16° C., day/night; 14 hours light; 65% humidity) for warm climate species and (at 20/16° C. day/night; 15 hours light; 65% humidity) for cool climate species and watered twice daily. After 7 and 14 days the test was evaluated (100=total damage to plant; 0=no damage to plant).
(§5) A value of n/t indicates not tested.
(§6) Glycine Max (GLXMA), Solanum turberosum (SOLTU), Gossypium hirsutum (GOSHI), Brassica napus (BRSNN), Helianthus annus (HELAN)

[2] = tested on: Gossypium hirsutum (GOSHI); test: Pre-harvest desiccation of crop plants; conditions: Table E, evaluated after 7 and 14 days (which not stated), 100=total damage to plant, 0=no damage
Procedure: as §1, §2, §3, §4, §5, §6

[3] = tested on: Glycine Max (GLXMA); test: Pre-harvest desiccation of crop plants; conditions: evaluated after 7 and 14 days (which not stated), 100=total damage to plant, 0=no damage; for Post-emergence dessication efficacy, GLXMA: Table E; for Post emergence dessication efficacy, GLXMA: Table F
Procedure: as §1, §2, §3, §4, §5, §6

[4] = tested on: Brassica napus (BRSNN); test: Pre-harvest desiccation of crop plants; conditions: evaluated after 7 and 14 days (which not stated), 100=total damage to plant, 0=no damage; for Post-emergence dessication efficacy, BRSNN: Table E; for Post emergence dessication efficacy, BRSNN: Table F
Procedure: as §1, §2, §3, §4, §5, §6

[5] = tested on: Lolium perenne (LOLPE); test: Post-emergence efficacy, Method B; conditions: read-out: Control of weed species after post-emergence application, LOLPE
Procedure: (§7) An “instant formulation”, known as the IF50, containing 50 g/L of the “technical” (i.e. unformulated) active ingredient was prepared by dissolving the active ingredient in a mixture of organic solvents and emulsifier, details of which are provided in the table. This IF50 was then mixed with a small, variable amount of acetone to aid dissolution, before addition of an aqueous solution of 1% v/v ammonium sulphate+1% v/v Empicol ESC70 (Sodium lauryl ether sulphate) adjuvant, as the aqueous diluent, to form an aqueous spray solution which contains a predetermined concentration of the active ingredient (which varies depending on the application rate of the active ingredient to the plants).
(§8) This aqueous spray solution was then sprayed onto the plants, after about 12 days' cultivation. The plants were grown from seeds sown in standard soil, placed in a glasshouse under controlled conditions (at 24/18° C. or 20/16° C., day/night; 16 hours light; 65% humidity). After spray application the plants were then grown on in a glasshouse under the same conditions and watered twice daily. After days the test was evaluated (100=total damage to plant; 0=no damage to plant).
(§9) Ipomoea hederacea (IPOHE), Euphorbia heterophylla (EPHHL), Chenopodium album (CHEAL), Amaranthus retroflexus (AMARE), Lolium perenne (LOLPE), Digitaria sanguinalis (DIGSA), Eleusine indica (ELEIN), Echinochloa crus-galli (ECHCG), Setaria faberi (SETFA)

[6] = tested on: Chenopodium album (CHEAL); test: Post-emergence efficacy, Method B; conditions: read-out: Control of weed species after post-emergence application, CHEAL
Procedure: as §7, §8, §9

[7] = tested on: Digitaria sanguinalis (DIGSA); test: Post-emergence efficacy, Method B; conditions: read-out: Control of weed species after post-emergence application, DIGSA
Procedure: as §7, §8, §9

[8] = tested on: Euphorbia heterophylla (EPHHL); test: Post-emergence efficacy, Method B; conditions: read-out: Control of weed species after post-emergence application, EPHHL
Procedure: as §7, §8, §9

[9] = tested on: Ipomoea hederacea (IPOHE); test: Post-emergence efficacy, Method B; conditions: read-out: Control of weed species after post-emergence application, IPOHE
Procedure: as §7, §8, §9

[10] = tested on: Setaria faberi (SETFA); test: Post-emergence efficacy, Method B; conditions: read-out: Control of weed species after post-emergence application, SETFA
Procedure: as §7, §8, §9

[11] = tested on: Eleusine indica (ELEIN); test: Post-emergence efficacy, Method B; conditions: read-out: Control of weed species after post-emergence application, ELEIN
Procedure: as §7, §8, §9

[12] = tested on: Echinochloa crus-galli (ECHCG); test: Post-emergence efficacy, Method B; conditions: read-out: Control of weed species after post-emergence application, ECHCG
Procedure: as §7, §8, §9

[13] = tested on: Amaranthus retroflexus (AMARE); test: Post-emergence efficacy, Method B; conditions: read-out: Control of weed species after post-emergence application, AMARE
Procedure: as §7, §8, §9

[14] = tested on: Lolium perenne (LOLPE); test: Post-emergence efficacy, Method C; conditions: 400 g/Ha, evaluated at 21 days, 100=total damage to plant, 0=no damage
Procedure: (§10) An “instant formulation”, known as the IF50, containing 50 g/L of the “technical” (i.e. unformulated) active ingredient was prepared by dissolving the active ingredient in a mixture of organic solvents and emulsifier, details of which are provided in the table. This IF50 was then mixed with a small, variable amount of acetone to aid dissolution, before addition of a 1% v/v aqueous solution in water of the adjuvant Empicol ESC70 3EO (Sodium lauryl ether sulphate) and 1% v/v Ammonium sulphate, as the aqueous diluent, to form an aqueous spray solution which contains a predetermined concentration of the active ingredient (which varies depending on the application rate of the active ingredient to the plants).
(§11) The composition of the mixture of organic solvents and emulsifier used as a base for the instant formulation was as given above in Table IF.
as §8, with “plants” for “plants,”, “21 days of” for “12 days'”, “24/18°” for “24/18° C. or 20/16°”, “14” for “16”, “The” for “After days the”, “evaluated at 21 days” for “evaluated”
(§12) Ipomoea hederacea (IPOHE), Amaranthus palmeri (AMAPA), Lolium perenne (LOLPE), Eleusine indica (ELEIN), Echinochloa crus-gaffi (ECHCG), Conyza canadensis (ERICA)

[15] = tested on: Conyza canadensis (ERICA); test: Post-emergence efficacy, Method C; conditions: 400 g/Ha, evaluated at 21 days, 100=total damage to plant, 0=no damage
Procedure: as §10, §11
as §8, with “plants” for “plants,”, “21 days of” for “12 days'”, “24/18°” for “24/18° C. or 20/16°”, “14” for “16”, “The” for “After days the”, “evaluated at 21 days” for “evaluated”
as §12

[16] = tested on: Ipomoea hederacea (IPOHE); test: Post-emergence efficacy, Method C; conditions: 400 g/Ha, evaluated at 21 days, 100=total damage to plant, 0=no damage
Procedure: as §10, §11
as §8, with “plants” for “plants,”, “21 days of” for “12 days'”, “24/18°” for “24/18° C. or 20/16°”, “14” for “16”, “The” for “After days the”, “evaluated at 21 days” for “evaluated”
as §12

[17] = tested on: Amaranthus palmeri (AMAPA); test: Post-emergence efficacy, Method C; conditions: 400 g/Ha, evaluated at 21 days, 100=total damage to plant, 0=no damage
Procedure: as §10, §11
as §8, with “plants” for “plants,”, “21 days of” for “12 days'”, “24/18°” for “24/18° C. or 20/16°”, “14” for “16”, “The” for “After days the”, “evaluated at 21 days” for “evaluated”
as §12

[18] = tested on: Eleusine indica (ELEIN); test: Post-emergence efficacy, Method C; conditions: 400 g/Ha, evaluated at 21 days, 100=total damage to plant, 0=no damage
Procedure: as §10, §11
as §8, with “plants” for “plants,”, “21 days of” for “12 days'”, “24/18°” for “24/18° C. or 20/16°”, “14” for “16”, “The” for “After days the”, “evaluated at 21 days” for “evaluated”
as §12

[19] = tested on: Echinochloa crus-gaffi (ECHCG); test: Post-emergence efficacy, Method C; conditions: 400 g/Ha, evaluated at 21 days, 100=total damage to plant, 0=no damage
Procedure: as §10, §11
as §8, with “plants” for “plants,”, “21 days of” for “12 days'”, “24/18°” for “24/18° C. or 20/16°”, “14” for “16”, “The” for “After days the”, “evaluated at 21 days” for “evaluated”
as §12

[20] = tested on: Helianthus annus (HELAN); test: Pre-harvest desiccation of crop plants; conditions: Table F, evaluated after 7 and 14 days (which not stated), 100=total damage to plant, 0=no damage
Procedure: as §1, §2, §3, §4, §5, §6

O=C(O)CC[n+]1ccc(-c2ccncn2)cn1.[Cl-] [Compound A28]
Post-emergence dessication efficacy, SOLTU ([1]; 150 g/Ha): 100
Post-emergence dessication efficacy, SOLTU ([1]; 300 g/Ha): 100
Post-emergence dessication efficacy, SOLTU ([1]; 600 g/Ha): 100
Post-emergence dessication efficacy, GOSHI ([2]; 150 g/Ha): 100
Post-emergence dessication efficacy, GOSHI ([2]; 300 g/Ha): 100
Post-emergence dessication efficacy, GOSHI ([2]; 600 g/Ha): 100
Post-emergence dessication efficacy, GLXMA ([3]; 150 g/Ha): 93
Post-emergence dessication efficacy, GLXMA ([3]; 300 g/Ha): 99
Post-emergence dessication efficacy, GLXMA ([3]; 600 g/Ha): 99
Post-emergence dessication efficacy, BRSNN ([4]; 150 g/Ha): 97
Post-emergence dessication efficacy, BRSNN ([4]; 300 g/Ha): 100
Post-emergence dessication efficacy, BRSNN ([4]; 600 g/Ha): 100
pest or weed control at 1000 g/ha [5]: 70%
pest or weed control at 1000 g/ha [6]: 90%
pest or weed control at 1000 g/ha [7]: 100%
pest or weed control at 1000 g/ha [8]: 100%
pest or weed control at 1000 g/ha [9]: 100%
pest or weed control at 1000 g/ha [10]: 40%
pest or weed control at 1000 g/ha [11]: 100%
pest or weed control at 1000 g/ha [12]: 100%
pest or weed control at 1000 g/ha [13]: 100%

O=S(=O)([O-])C[n+]1ccc(-c2ncccn2)cn1 [Compound A3, (4-pyrimidin-2-ylpyridazin-1-ium-1-yl)methanesulfonate]
Control of weed species after post-emergence application, LOLPE [14]: 25
Control of weed species after post-emergence application, ERICA [15]: 100
Control of weed species after post-emergence application, IPOHE [16]: 83
Control of weed species after post-emergence application, AMAPA [17]: 65
Control of weed species after post-emergence application, ELEIN [18]: 15
Control of weed species after post-emergence application, ECHCG [19]: 13

O=C(O)CC[n+]1ccc(-c2cccnn2)cn1.[Cl-] [Compound A138, 3-(4-pyridazin-3-ylpyridazin-1-ium-1-yl)propanoic acid chloride]
Post emergence dessication efficacy, GLXMA ([3]; 50 g/Ha): 57 and 37
Post emergence dessication efficacy, GLXMA ([3]; 150 g/Ha): 67 and 72
Post emergence dessication efficacy, GLXMA ([3]; 600 g/Ha): 82 and 90
Post emergence dessication efficacy, HELAN ([20]; 50 g/Ha): 100
Post emergence dessication efficacy, HELAN ([20]; 150 g/Ha): 100
Post emergence dessication efficacy, HELAN ([20]; 600 g/Ha): 100
Post emergence dessication efficacy, BRSNN ([4]; 150 g/Ha): 63 and 98
Post emergence dessication efficacy, BRSNN ([4]; 600 g/Ha): 96 and 100
pest or weed control at 1000 g/ha [5]: 100%
pest or weed control at 1000 g/ha [6]: 100%
pest or weed control at 1000 g/ha [7]: 100%
pest or weed control at 1000 g/ha [8]: 100%
pest or weed control at 1000 g/ha [9]: 40%
pest or weed control at 1000 g/ha [10]: 100%
pest or weed control at 1000 g/ha [11]: 100%
pest or weed control at 1000 g/ha [12]: 100%
pest or weed control at 1000 g/ha [13]: 100%

Cl.O=S(=O)([O-])CC[n+]1ccc(-c2ccncc2)cn1 [Compound A27]
Control of weed species after post-emergence application, LOLPE [14]: 68
Control of weed species after post-emergence application, ERICA [15]: 65
Control of weed species after post-emergence application, IPOHE [16]: 90
Control of weed species after post-emergence application, AMAPA [17]: 77
Control of weed species after post-emergence application, ELEIN [18]: 80
Control of weed species after post-emergence application, ECHCG [19]: 43

Source: US20220125051A1, “PRE-HARVEST DESICCATION METHOD” (SYNGENTA CROP PROTECTION AG, priority 2019, published 2022)
